Source: patent publication US10808007B2, “Desacetoxytubulysin H and analogs thereof” (WILLIAM MARSH RICE UNIVERSITY, priority 2015, dated 2020)
Where two headings read alike, the source gives them in different places.

Experiments:
Type in all cases: cell-based
[1] = test system: prostate cancer cell lines; experiment: NCI-60 cytotoxicity, prostate cancer; conditions: Homo sapiens
Description: (§1) A number of the synthesized compounds (i.e. Tb1-Tb23) were evaluated for their activity against a variety of cancer cell lines, namely the NCI-60 human cancer cell line panel representing leukemia, melanoma, lung, colon, brain, ovary, breast, prostate and kidney types of cancer through the In Vitro Cell Line Screening Project (IVCLSP) of the National Cancer Institute (NCI), and a summary of the results is shown in Table 1. […] As there was interest in the activity in certain other cell lines, these and the remaining compounds (Tb1-Tb41, PTb-D42 and PTb-D43) were subjected to further testing against MES SA (uterine sarcoma cells), MES SA DX (multidrug resistant uterine sarcoma cells), and HEK 293T (human embryonic kidney cells). […] Tubulysins are known to be substrates for Pgp pumps (Xiangming, et al., 2013; Kaur, et al., 2006; Szakacs, et al., 2006) as supported by the observed low activities of all tubulysins tested except Tb28, Tb32 and Tb33.

[2] = test system: non-small cell lung cancer cell lines; experiment: NCI-60 cytotoxicity, non-small cell lung cancer; conditions: Homo sapiens
Description: as §1

CNS cancer cell lines = experiment: NCI-60 cytotoxicity, CNS cancer; conditions: Homo sapiens
Description: as §1

[3] = test system: MES SA (uterine sarcoma cells); experiment: Cytotoxic assay (CellTiter-Glo, 72 h), MES SA; conditions: Homo sapiens, MES-SA, read-out: IC50 MES SA
breast cancer cell lines = experiment: NCI-60 cytotoxicity, breast cancer; conditions: Homo sapiens
Description: as §1

renal cancer cell lines = experiment: NCI-60 cytotoxicity, renal cancer; conditions: Homo sapiens
Description: as §1

[4] = test system: HEK 293T (human embryonic kidney cells); experiment: Cytotoxic assay (CellTiter-Glo, 72 h), HEK 293T; conditions: Homo sapiens, HEK-293T, read-out: IC50 HEK 293T
[5] = test system: MES SA DX (multidrug resistant uterine sarcoma cells); experiment: Cytotoxic assay (CellTiter-Glo, 72 h), MES SA DX; conditions: Homo sapiens
melanoma cell lines = experiment: NCI-60 cytotoxicity, melanoma; conditions: Homo sapiens
Description: as §1

colon cancer cell lines = experiment: NCI-60 cytotoxicity, colon cancer; conditions: Homo sapiens
Description: as §1

[6] = test system: leukemia cancer cell lines; experiment: NCI-60 cytotoxicity, leukemia; conditions: Homo sapiens
Description: as §1

[7] = test system: ovarian cancer cell lines; experiment: NCI-60 cytotoxicity, ovarian cancer; conditions: Homo sapiens
Description: as §1

Structure (SMILES)	GI50 ([1]; NCI-60, selected value) [nM]	GI50 (CNS cancer cell lines; NCI-60, selected value) [nM]	IC50 ([3]; 72 h) [nM]	IC50 ([4]; 72 h) [nM]	IC50 [5] [nM]	GI50 (melanoma cell lines; NCI-60, selected value) [nM]	GI50 (colon cancer cell lines; NCI-60, selected value) [nM]	GI50 ([2]; NCI-60, selected value) [nM]	GI50 (breast cancer cell lines; NCI-60, selected value) [nM]	GI50 (renal cancer cell lines; NCI-60, selected value) [nM]	GI50 ([6]; NCI-60, selected value) [nM]	GI50 ([7]; NCI-60, selected value) [nM]	also measured
CCC(C)[C@H](NC(=O)[C@H]1CCCCN1C)C(=O)N(C)[C@H](C[C@@H](OC(C)=O)c1nc(C(=O)NC23CC(C(=O)OC)(C2)C3)cs1)C(C)C (stereo in doubt) [Tb14, Methyl 3-(2-((1R,3R)-1-acetoxy-3-((2S,3S)—N,3-dimethyl-2-((R)-1-methylpiperidine-2-carboxamido)-pentanamido)-4-methylpentyl)thiazole-4-carboxamido)bicyclo[1.1.1]pentane-1-carboxylate]	0.449	0.382	0.35	0.11	> 50	0.137	0.433	–	–	–	–	–	GI50 ([1]; NCI-60): 0.449 nM; GI50 ([2]; NCI-60): 0.156 nM; GI50 (CNS cancer cell lines; NCI-60): 0.382 nM; IC50 [3]: 0.35 nM; GI50 (breast cancer cell lines; NCI-60): 0.267 nM; GI50 (renal cancer cell lines; NCI-60): 0.364 nM; IC50 [4]: 0.11 nM; GI50 (melanoma cell lines; NCI-60): 0.137 nM; GI50 (colon cancer cell lines; NCI-60): 0.433 nM; GI50 ([6]; NCI-60): 0.064 nM; GI50 ([7]; NCI-60): 0.256 nM
CC[C@H](C)[C@H](NC(=O)[C@H]1CCCCN1C)C(=O)N(C)[C@H](C[C@@H](OC(C)=O)c1nc(C(=O)N[C@@H](Cc2ccccc2)C[C@H](C)C(=O)O)cs1)C(C)C [Tb1, N^14-desacetoxytubulysin H]	0.339	0.305	0.34	0.02	> 10	0.074	0.269	0.347	0.147	0.548	0.264	0.234	IC50 [3]: 0.34 nM; IC50 [4]: 0.02 nM
CC[C@H](C)[C@H](NC(=O)[C@H]1CCCCN1C)C(=O)N(C)[C@H](C[C@@H](OC(C)=O)c1nc(C(=O)N[C@@H](Cc2ccccc2)C[C@H](C)C(=O)OC)cs1)C(C)C [Tb2, Methyl (2S,4R)-4-(2-((1R,3R)-1-acetoxy-3-((2S,3S)—N,3-dimethyl-2-((R)-1-methylpiperidine-2-carbo-xamido)pentanamido)-4-methylpentyl)thiazole-4-carboxamido)-2-methyl-5-phenylpentanoate]	0.162	0.219	0.2	0.03	> 10	0.03	0.158	0.28	0.043	0.218	0.078	0.042	IC50 [3]: 0.2 nM; IC50 [4]: 0.03 nM
CC[C@H](C)[C@H](NC(=O)c1ccccn1)C(=O)N(C)[C@H](C[C@@H](OC(C)=O)c1nc(C(=O)N[C@@H](Cc2ccccc2)C[C@H](C)C(=O)OC)cs1)C(C)C [Tb3, (2S,4R)-Methyl 4-(2-((1R,3R)-1-acetoxy-3-((2S,3S)—N,3-dimethyl-2-(picolinamido)pentanamido)-4-methylpentyl)thi-azole-4-carboxamido)-2-methyl-5-phenylpentanoate]	> 1000	> 1000	> 50	> 50	> 50	> 1000	> 1000	> 1000	> 1000	> 1000	> 1000	> 1000	–
CC[C@H](C)[C@H](NC(=O)N[C@@H](C)c1ccccc1)C(=O)N(C)[C@H](C[C@@H](OC(C)=O)c1nc(C(=O)N[C@@H](Cc2ccccc2)C[C@H](C)C(=O)OC)cs1)C(C)C [Tb4, (2S,4R)-Methyl 4-(2-((2S,6S,9R,1 IR)-6-((S)-sec-butyl)-9-isopropyl-8-methyl-4,7,13-trioxo-2-phenyl-12-oxa-3,5,8-tri-azatetradecan-11-yl)thiazole-4-carboxamido)-2-methyl-5-phenylpentanoate]	> 1000	> 1000	> 50	> 50	> 50	> 1000	> 1000	> 1000	> 1000	> 1000	> 1000	> 1000	–
CC[C@H](C)[C@H](NC(=O)Nc1ccccc1)C(=O)N(C)[C@H](C[C@@H](OC(C)=O)c1nc(C(=O)N[C@@H](Cc2ccccc2)C[C@H](C)C(=O)OC)cs1)C(C)C [Tb5, (2S,4R)-Methyl 4-(2-((1R,3R)-1-acetoxy-3-((2S,3S)—N,3-dimethyl-2-(3-phenylureido)pentanamido)-4-methylpentyl)thiazole-4-carboxamido)-2-methyl-5-phenylpentanoate]	> 1000	> 1000	> 50	> 50	> 50	416	> 1000	> 1000	514	> 1000	> 1000	> 1000	–
CC[C@H](C)[C@H](NC(=O)NC(C)(C)C)C(=O)N(C)[C@H](C[C@@H](OC(C)=O)c1nc(C(=O)N[C@@H](Cc2ccccc2)C[C@H](C)C(=O)OC)cs1)C(C)C [Tb6, Methyl (2S,4R)-4-(2-((6S,9R,1R)-6-((S)-sec-butyl)-9-isopropyl-2,2,8-trimethyl-4,7,13-trioxo-12-oxa-3,5,8-triazatetradecan-11-yl)thiazole-4-carboxamido)-2-methyl-5-phenylpentanoate]	689	439	> 50	> 50	> 50	83.9	339	164	71.4	154	286	127	–
CC[C@H](C)[C@H](NC(=O)C12CC(NC(C)=O)(C1)C2)C(=O)N(C)[C@H](C[C@@H](OC(C)=O)c1nc(C(=O)N[C@@H](Cc2ccccc2)C[C@H](C)C(=O)OC)cs1)C(C)C [Tb7, Methyl (2S,4R)-4-(2-((1R,3R)-3-((2S,3S)-2-(3-acetamidobicyclo[1.1.1]pentane-1-carboxamido)-N,3-dimethylpentanamido)-1-acetoxy-4-methylpentyl)thiazole-4-carboxamido)-2-methyl-5-phenyl-pentanoate]	105	219	> 50	> 50	> 50	31.4	61.3	57.8	42.8	134	17.6	48.5	–
CC[C@H](C)[C@H](NC(=O)C12CC(NC)(C1)C2)C(=O)N(C)[C@H](C[C@@H](OC(C)=O)c1nc(C(=O)N[C@@H](Cc2ccccc2)C[C@H](C)C(=O)OC)cs1)C(C)C [Tb8, Methyl(2S,4R)-4-(2-((1R,3R)-1-acetoxy-3-((2S,3S)—N,3-dimethyl-2-(3-(methylamino)-bicyclo[1.1.1]pentane-1-carboxamido)pentanamido)-4-methylpentyl)thiazole-4-carboxamido)-2-methyl, 5-phenyl-pentanoate-phenylpentanoate]	125	105	> 50	> 50	> 50	33.3	121	96.7	52.1	164	9.62	75	–
CC[C@H](C)[C@H](NC(=O)C12C3C4C1C1C2C3C41NC(C)=O)C(=O)N(C)[C@H](C[C@@H](OC(C)=O)c1nc(C(=O)N[C@@H](Cc2ccccc2)C[C@H](C)C(=O)OC)cs1)C(C)C (stereo partly drawn) [Tb9, Methyl(2S,4R)-4-(2-((R,3R)-3-((2S,3S)-2-(4-acetamidocubane-1-carboxamido)-N,3-dimethylpentan amido)-1-acetoxy-4-methylpentyl)thiazole-4-carboxamido)-2-methyl-5-phenylpentanoate]	459	246	> 50	> 50	> 50	46.6	331	83.6	53.2	238	24.2	61	–
CC[C@H](C)[C@H](NC(=O)C12C3C4C1C1C2C3C41NC)C(=O)N(C)[C@H](C[C@@H](OC(C)=O)c1nc(C(=O)N[C@@H](Cc2ccccc2)C[C@H](C)C(=O)OC)cs1)C(C)C (stereo partly drawn) [Tb10, Methyl(2S,4R)-4-(2-((1R,3R)-1-acetoxy-3-((2S,3S)—N,3-dimethyl-2-(4-(methylamino)cubane-1-carboxamido)pentanamido)-4-methylpentyl)thiazole-4-carboxamido)-2-methyl-5-phenylpentanoate]	500	271	> 50	> 50	> 50	49.5	355	60.2	66.4	413	61.3	92.6	–
